From patent publication US20060008512A1, “Composition and methods for improved animal performance” (priority 2004, published 2006)
Read-outs that look alike come from different tables or passages of the source. Marks after values point to notes of the source that are not given here.

Tests used:
[1] = test system: fast-growing broiler chickens; conditions: low ambient temperature and pelleted feed; untreated 21.5%; cited from earlier work
[2] = test system: Hy-Line W-36 White Leghorn hens; conditions: for Ovary Weight per hen / Oviduct Weight per hen: day 34
Excerpt: Experiment 3. […] The photoperiod serves as the primary environmental signal that regulates reproductive function in many avian species. Increasing the photoperiod promotes maturation of the gonads and reproductive tract, whereas reducing the photoperiod causes the gonads and reproductive tract to regress and molting to occur.

Bovans caged laying hens = experiment: Experiment 6: molting of caged laying hens with dietary L-thyroxine or TIC plus MgO or sodium salicylate; type: in vivo, chicken; conditions: 10 hours of light daily
Excerpt: Experiment 6. Molting of Caged Laying with Dietary L-Thyroxine or Thyroactive Iodinated Casein Plus MgO or Sodium Salicylate.
In Experiment 6, a conventional feed withdrawal molting procedure was compared with 5 dietary thyroxine treatments. Body weight loss after 9 days was greater, days to 0% egg production (9 days) shorter, ovary plus oviduct weight numerically lighter on day 9 of treatment, but eggs collected on day 4 of treatment had thinner shells, in the feed withdrawal group.

young rats = conditions: 10 mg L-thyroxine/kg diet; 400 mg magnesium/kg; cited from earlier work
[3] = test system: Hy-Line W-36 White Leghorn hens
Protocol: Experiment 1. […] While acknowledging that injecting individual hens is commercially impractical (Webster, 2003), nevertheless an initial study was needed to establish the efficacy of T4 when it is delivered directly into the hens in precisely measured doses. The photoperiod was 17 hours of light per day (0330 hours to 2030 hours).

[4] = 40 mg T4/kg diet, listed as L-T

N[C@@H](Cc1cc(I)c(Oc2cc(I)c(O)c(I)c2)c(I)c1)C(=O)O [L-thyroxine, 3,5,3′,5′-tetraiodo-L-thyronine]
Ascites [1]: 7%
Hens molted ([2]; 20 mg T4/kg groups, either chamber): None of the hens
Time to significantly reduced egg production ([2]; 20 mg T4/kg, 17 hr light): ≤ 8 days
Body weight (BW) ([2]; 20 mg/kg of feed 12 d from day 13, 8 hr light, Day 12 (pre-molt)): 1492 g
Body weight change (% BWC) ([2]; 20 mg/kg of feed 12 d from day 13, 8 hr light, Day 22): −12.8%
Body weight (BW) ([2]; 20 mg/kg of feed 12 d from day 13, 8 hr light, Day 22 (end of molt)): 1301 g
Body weight change (% BWC) ([2]; 20 mg/kg of feed 12 d from day 13, 8 hr light, Day 34): −10.7%
Body weight (BW) ([2]; 20 mg/kg of feed 12 d from day 13, 8 hr light, Day 34 (final)): 1332 g
Body weight (BW) ([2]; 20 mg/kg of feed 12 d from day 13, 17 hr light, Day 12 (pre-molt)): 1572 g
Body weight change (% BWC) ([2]; 20 mg/kg of feed 12 d from day 13, 17 hr light, Day 22): −13.3%
Body weight (BW) ([2]; 20 mg/kg of feed 12 d from day 13, 17 hr light, Day 22 (end of molt)): 1363 g
Body weight change (% BWC) ([2]; 20 mg/kg of feed 12 d from day 13, 17 hr light, Day 34): −7.6%
Body weight (BW) ([2]; 20 mg/kg of feed 12 d from day 13, 17 hr light, Day 34 (final)): 1453 g
Ovary Weight per hen ([2]; 20 mg/kg of feed, 8 hr light): 7.91 g
Oviduct Weight per hen ([2]; 20 mg/kg of feed, 8 hr light): 18.64 g
Ovary Weight per hen ([2]; 20 mg/kg of feed, 17 hr light): 31.41 g
Oviduct Weight per hen ([2]; 20 mg/kg of feed, 17 hr light): 43.81 g
Hens molted fully ([2]; 40 mg T4/kg, 8 hr light, 7/12): 58%
Hens molted fully ([2]; 40 mg T4/kg, 17 hr light): 100%
Time to significantly reduced egg production ([2]; 40 mg T4/kg, 17 hr light): ≤ 6 days
Body weight (BW) ([2]; 40 mg/kg of feed 12 d from day 13, 8 hr light, Day 12 (pre-molt)): 1488 g
Body weight change (% BWC) ([2]; 40 mg/kg of feed 12 d from day 13, 8 hr light, Day 22): −17.9%
Body weight (BW) ([2]; 40 mg/kg of feed 12 d from day 13, 8 hr light, Day 22 (end of molt)): 1222 g
Body weight change (% BWC) ([2]; 40 mg/kg of feed 12 d from day 13, 8 hr light, Day 34): −12.6%
Body weight (BW) ([2]; 40 mg/kg of feed 12 d from day 13, 8 hr light, Day 34 (final)): 1300 g
Body weight (BW) ([2]; 40 mg/kg of feed 12 d from day 13, 17 hr light, Day 12 (pre-molt)): 1436 g
Body weight change (% BWC) ([2]; 40 mg/kg of feed 12 d from day 13, 17 hr light, Day 22): −18.0%
Body weight (BW) ([2]; 40 mg/kg of feed 12 d from day 13, 17 hr light, Day 22 (end of molt)): 1178 g
Body weight change (% BWC) ([2]; 40 mg/kg of feed 12 d from day 13, 17 hr light, Day 34): −14.8%
Body weight (BW) ([2]; 40 mg/kg of feed 12 d from day 13, 17 hr light, Day 34 (final)): 1224 g
Ovary Weight per hen ([2]; 40 mg/kg of feed, 8 hr light): 9.32 g
Oviduct Weight per hen ([2]; 40 mg/kg of feed, 8 hr light): 14.25 g
Ovary Weight per hen ([2]; 40 mg/kg of feed, 17 hr light): 3.82 g
Oviduct Weight per hen ([2]; 40 mg/kg of feed, 17 hr light): 8.03 g
Mortality ([2]; 20 and 40 mg T4/kg, 12 days): No mortality occurred
Time to significantly reduced egg production ([2]; 20 and 40 mg T4/kg, 8 hr light): ≤ 4 days
2&4 Jun. 05 Egg Weight (Bovans caged laying hens; 20 mg T4/kg diet): 58.68 g
4 Jun. 05 Shell + Membrane (Bovans caged laying hens; 20 mg T4/kg diet): 0.466^a mm
9 Jun. 05 (9th d Trt) Body Wt Change (Bovans caged laying hens; 20 mg T4/kg diet): −0.50^b lb
9 Jun. 05 Ovary + Oviduct (Bovans caged laying hens; 20 mg T4/kg diet): 4.59 % B Wt
25 May 05 Initial Body Wt (Bovans caged laying hens; 20 mg T4/kg diet): 3.49 lb
Days to 0% Egg Prod. (by Replicate) (Bovans caged laying hens; 20 mg T4/kg diet): 12.0^a Days
2&4 Jun. 05 Egg Weight (Bovans caged laying hens; 40 mg T4/kg diet): 60.17 g
4 Jun. 05 Shell + Membrane (Bovans caged laying hens; 40 mg T4/kg diet): 0.446^a mm
9 Jun. 05 (9th d Trt) Body Wt Change (Bovans caged laying hens; 40 mg T4/kg diet): −0.54 lb
9 Jun. 05 Ovary + Oviduct (Bovans caged laying hens; 40 mg T4/kg diet): 3.19 % B Wt
25 May 05 Initial Body Wt (Bovans caged laying hens; 40 mg T4/kg diet): 3.57 lb
Days to 0% Egg Prod. (by Replicate) (Bovans caged laying hens; 40 mg T4/kg diet): 11 days
9 Jun. 05 (9th d Trt) Body Wt Change (Bovans caged laying hens; [4]): −0.60^b lb
Days to 0% Egg Prod. (by Replicate) (Bovans caged laying hens; [4]): 11.0^a Days
Weight gain in 16 days (young rats): 60 g
Egg production ([3]; 250 μg T4 per kg body weight for 12 consecutive days): did not reduce egg production significantly
Onset of molt in all cages after the start of T4 injection ([3]; 500 μg T4 Group): 11 days
Day of T4 injection by which egg production ceased entirely ([3]; 1,000 μg T4 Group): ≤ 8 days
Onset of molt in all cages after the start of T4 injection ([3]; 1,000 μg T4 Group): 9 days
Mortality ([3]; 1,000 μg T4 Group, 2 of 8 hens, 9th and 10th day after start of injection): 25%
Time to complete cessation of egg production ([3]; 2,000 μg T4 per kg body weight for 3 consecutive days): ≤ 6 days
Mortality ([3]; 4,000 μg T4 Group, 1 of 4 hens, 8th day after start of injection): 25%
Time to complete cessation of egg production ([3]; 4,000 μg T4 per kg body weight for 3 consecutive days): ≤ 4 days
End of Injections Body Weight ([3]; 250 mcg/kg body wt i.m. 12 d): 1300 g
